Tested on: 648629-189-R-J1-PDC spheroids with HUVEC/MSC, viability
Assay: Anticancer human tumor 648629-189-R-J1-PDC patient-derived bladder carcinoma cell line growth inhibition [PI3K]
Conditions: for IC50: curve of first compound; for viability, T/C: stronger effect = lower value; active = viability on the fitted dose curve at most 10% of control; inactive = the rest
Procedure, shortened: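 Three cell types, namely tumor cells, endothelial cells and mesenchymal stem cells, formed each spheroid. Combinations with four PI3K inhibitors were screened at clinically achievable concentrations decreasing by half-log, and spheroid viability was recorded.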

[1] = second compound 0.00316 µM, first compound 0.0316 µM
[2] = second compound 0.00316 µM, first compound 0.1 µM
[3] = second compound 0.01 µM, first compound 0.0316 µM
[4] = second compound 0.01 µM, first compound 0.1 µM
[5] = second compound 0.0316 µM, first compound 0.0316 µM
[6] = second compound 0.0316 µM, first compound 0.1 µM
[7] = second compound 0.0316 µM, first compound 0.316 µM
[8] = second compound 0.0316 µM, first compound 1 µM
[9] = second compound 0.0316 µM, first compound 3.16 µM
[10] = second compound 0.0316 µM, first compound 10 µM
[11] = second compound 0.1 µM, first compound 0.0316 µM
[12] = second compound 0.1 µM, first compound 0.1 µM
[13] = second compound 0.1 µM, first compound 0.316 µM
[14] = second compound 0.1 µM, first compound 1 µM
[15] = second compound 0.1 µM, first compound 3.16 µM
[16] = second compound 0.1 µM, first compound 10 µM
[17] = second compound 0.316 µM, first compound 0.0316 µM
[18] = second compound 0.316 µM, first compound 0.1 µM
[19] = second compound 0.316 µM, first compound 0.316 µM
[20] = second compound 0.316 µM, first compound 1 µM
[21] = second compound 0.316 µM, first compound 3.16 µM
[22] = second compound 0.316 µM, first compound 10 µM
[23] = second compound 1 µM, first compound 0.0316 µM
[24] = second compound 1 µM, first compound 0.1 µM
[25] = second compound 1 µM, first compound 0.316 µM
[26] = second compound 1 µM, first compound 1 µM
[27] = second compound 1 µM, first compound 3.16 µM
[28] = second compound 1 µM, first compound 10 µM
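Also: spheroids exposed to agents for seven days before reading.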
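For viability, T/C in this document: percent of vehicle control luminescence where 100% = DMSO treated spheroids.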

C#Cc1c(F)ccc2cc(O)cc(-c3ncc4c(N5CC6CCC(C5)N6)nc(OCC56CCCN5CC(F)C6)nc4c3F)c12 (stereo unspecified) + CC(Nc1ccc2c(c1)OCCn1cc(N3C(=O)OCC3C(F)F)nc1-2)C(N)=O
inactive: viability, T/C [1] 105% | viability, T/C [2] 96.2% | viability, T/C (second compound 0.00316 µM, first compound 0.316 µM) 109% | viability, T/C (second compound 0.00316 µM, first compound 1 µM) 96.6% | viability, T/C (second compound 0.00316 µM, first compound 3.16 µM) 120% | viability, T/C (second compound 0.00316 µM, first compound 10 µM) 102% | viability, T/C [3] 97.9% | viability, T/C [4] 99.9% | viability, T/C (second compound 0.01 µM, first compound 0.316 µM) 96.3% | viability, T/C (second compound 0.01 µM, first compound 1 µM) 97% | viability, T/C (second compound 0.01 µM, first compound 3.16 µM) 106% | viability, T/C (second compound 0.01 µM, first compound 10 µM) 85.8% | viability, T/C [5] 105% | viability, T/C [6] 100% | viability, T/C [7] 93.2% | viability, T/C [8] 99.1% | viability, T/C [9] 103% | viability, T/C [10] 92.5% | viability, T/C [11] 92.7% | viability, T/C [12] 85.5% | viability, T/C [13] 81.7% | viability, T/C [14] 90% | viability, T/C [15] 95.4% | viability, T/C [16] 89.3% | viability, T/C [17] 82.3% | viability, T/C [18] 75% | viability, T/C [19] 71.7% | viability, T/C [20] 74.8% | viability, T/C [21] 80.8% | viability, T/C [22] 75.3% | viability, T/C [23] 57.5% | viability, T/C [24] 66.4% | viability, T/C [25] 63.2% | viability, T/C [26] 58.7% | viability, T/C [27] 64.5% | viability, T/C [28] 57.4%
> 10 µM: IC50 (second compound 0.00316 µM) | IC50 (second compound 0.01 µM) | IC50 (second compound 0.0316 µM) | IC50 (second compound 0.1 µM) | IC50 (second compound 0.316 µM) | IC50 (second compound 1 µM)

Cn1ncnc1[C@H]1c2n[nH]c(=O)c3cc(F)cc(c23)N[C@@H]1c1ccc(F)cc1 + CC(Nc1ccc2c(c1)OCCn1cc(N3C(=O)OCC3C(F)F)nc1-2)C(N)=O
0.0683 µM: IC50 (second compound 1 µM)
> 0.1 µM: IC50 (second compound 0.00316 µM) | IC50 (second compound 0.01 µM) | IC50 (second compound 0.0316 µM) | IC50 (second compound 0.1 µM) | IC50 (second compound 0.316 µM)
inactive: viability, T/C (second compound 0.00316 µM, first compound 0.000316 µM) 108% | viability, T/C (second compound 0.00316 µM, first compound 0.001 µM) 110% | viability, T/C (second compound 0.00316 µM, first compound 0.00316 µM) 102% | viability, T/C (second compound 0.00316 µM, first compound 0.01 µM) 83.5% | viability, T/C [1] 75.6% | viability, T/C [2] 63.8% | viability, T/C (second compound 0.01 µM, first compound 0.000316 µM) 115% | viability, T/C (second compound 0.01 µM, first compound 0.001 µM) 106% | viability, T/C (second compound 0.01 µM, first compound 0.00316 µM) 97.3% | viability, T/C (second compound 0.01 µM, first compound 0.01 µM) 86.4% | viability, T/C [3] 69.4% | viability, T/C [4] 62% | viability, T/C (second compound 0.0316 µM, first compound 0.000316 µM) 101% | viability, T/C (second compound 0.0316 µM, first compound 0.001 µM) 99.2% | viability, T/C (second compound 0.0316 µM, first compound 0.00316 µM) 96% | viability, T/C (second compound 0.0316 µM, first compound 0.01 µM) 79.2% | viability, T/C [5] 82% | viability, T/C [6] 61.7% | viability, T/C (second compound 0.1 µM, first compound 0.000316 µM) 97.8% | viability, T/C (second compound 0.1 µM, first compound 0.001 µM) 93.4% | viability, T/C (second compound 0.1 µM, first compound 0.00316 µM) 105% | viability, T/C (second compound 0.1 µM, first compound 0.01 µM) 77.5% | viability, T/C [11] 70.2% | viability, T/C [12] 55.3% | viability, T/C (second compound 0.316 µM, first compound 0.000316 µM) 76% | viability, T/C (second compound 0.316 µM, first compound 0.001 µM) 86.7% | viability, T/C (second compound 0.316 µM, first compound 0.00316 µM) 73.3% | viability, T/C (second compound 0.316 µM, first compound 0.01 µM) 69.7% | viability, T/C [17] 60.9% | viability, T/C [18] 55.5% | viability, T/C (second compound 1 µM, first compound 0.000316 µM) 69.5% | viability, T/C (second compound 1 µM, first compound 0.001 µM) 60.5% | viability, T/C (second compound 1 µM, first compound 0.00316 µM) 69.2% | viability, T/C (second compound 1 µM, first compound 0.01 µM) 66% | viability, T/C [23] 61% | viability, T/C [24] 44.4%

CNC(=O)c1ccc(N2C(=S)N(c3ccc(C#N)c(C(F)(F)F)c3)C(=O)C2(C)C)cc1F + CC(Nc1ncnc2nc[nH]c12)c1cc2cccc(Cl)c2c(=O)n1-c1ccccc1
> 10 µM: IC50 (second compound 0.0316 µM) | IC50 (second compound 0.1 µM) | IC50 (second compound 0.316 µM) | IC50 (second compound 1 µM) | IC50 (second compound 3.16 µM) | IC50 (second compound 10 µM)
inactive: viability, T/C [5] 113% | viability, T/C [6] 107% | viability, T/C [7] 101% | viability, T/C [8] 102% | viability, T/C [9] 102% | viability, T/C [10] 87.4% | viability, T/C [11] 113% | viability, T/C [12] 98.9% | viability, T/C [13] 96.6% | viability, T/C [14] 97.8% | viability, T/C [15] 92.8% | viability, T/C [16] 80.2% | viability, T/C [17] 105% | viability, T/C [18] 111% | viability, T/C [19] 93.5% | viability, T/C [20] 104% | viability, T/C [21] 118% | viability, T/C [22] 78.9% | viability, T/C [23] 99% | viability, T/C [24] 101% | viability, T/C [25] 100% | viability, T/C [26] 97.1% | viability, T/C [27] 105% | viability, T/C [28] 88.5% | viability, T/C (second compound 3.16 µM, first compound 0.0316 µM) 92% | viability, T/C (second compound 3.16 µM, first compound 0.1 µM) 109% | viability, T/C (second compound 3.16 µM, first compound 0.316 µM) 93.9% | viability, T/C (second compound 3.16 µM, first compound 1 µM) 95.3% | viability, T/C (second compound 3.16 µM, first compound 3.16 µM) 95.5% | viability, T/C (second compound 3.16 µM, first compound 10 µM) 90.8% | viability, T/C (second compound 10 µM, first compound 0.0316 µM) 82.7% | viability, T/C (second compound 10 µM, first compound 0.1 µM) 87.1% | viability, T/C (second compound 10 µM, first compound 0.316 µM) 100% | viability, T/C (second compound 10 µM, first compound 1 µM) 91.1% | viability, T/C (second compound 10 µM, first compound 3.16 µM) 87.7% | viability, T/C (second compound 10 µM, first compound 10 µM) 69%
